Experiments:
Experiment in all cases: relative viability (nuclei count vs DMSO), 5 days (fraction); higher = more cells survive
[1] = compound: Cn1cc(-c2cnn3c(N)c(Br)c([C@@H]4CCCNC4)nc23)cn1 + CCNC(=O)c1noc(-c2cc(C(C)C)c(O)cc2O)c1-c1ccc(CN2CCOCC2)cc1 [Luminespib] (partner 0.01 µM)
In short: (§1)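 One day after seeding in 1536-well plates, lung cancer cell lines were dosed by pin tool. Dosing was either single-drug or a fixed anchor-drug dose plus five library-drug doses (not always all listed) in √10 steps. After 5 days, nuclei were stained in one fix-and-stain step and counted on 4× images, and relative viability is the nuclei count of treated wells over that of vehicle wells, given as the median of duplicate plates.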

[2] = compound: Cn1cc(-c2cnn3c(N)c(Br)c([C@@H]4CCCNC4)nc23)cn1 + COc1cccc2cc(-c3nc([C@H]4CC[C@H](C(=O)O)CC4)n4ncnc(N)c34)[nH]c12 [OSI-027] (partner 0.5 µM)
In short: as §1

[3] = compound: Cn1cc(-c2cnn3c(N)c(Br)c([C@@H]4CCCNC4)nc23)cn1 + CS(=O)(=O)CCNCc1ccc(-c2ccc3ncnc(Nc4ccc(OCc5cccc(F)c5)c(Cl)c4)c3c2)o1 [Lapatinib] (partner 2 µM)
In short: as §1

[4] = compound: Cn1cc(-c2cnn3c(N)c(Br)c([C@@H]4CCCNC4)nc23)cn1 + C[C@]1(O)C[C@@H](c2nc(-c3ccc4ccc(-c5ccccc5)nc4c3)c3c(N)nccn32)C1 [Linsitinib] (partner 1 µM)
In short: as §1

Row | Cell Line | relative viability ([1]; first compound 0.05 µM) | relative viability ([1]; first compound 0.1581 µM) | relative viability ([1]; first compound 0.5 µM) | relative viability ([1]; first compound 1.581 µM) | relative viability ([1]; first compound 5 µM) | relative viability ([2]; first compound 0.05 µM) | relative viability ([2]; first compound 0.1581 µM) | relative viability ([2]; first compound 0.5 µM) | relative viability ([2]; first compound 1.581 µM) | relative viability ([2]; first compound 5 µM) | relative viability ([3]; first compound 0.05 µM) | relative viability ([3]; first compound 0.1581 µM) | relative viability ([3]; first compound 0.5 µM) | relative viability ([3]; first compound 1.581 µM) | relative viability ([3]; first compound 5 µM) | relative viability ([4]; first compound 0.05 µM) | relative viability ([4]; first compound 0.1581 µM) | relative viability ([4]; first compound 0.5 µM) | relative viability ([4]; first compound 1.581 µM) | relative viability ([4]; first compound 5 µM)
1 | H3255 | 0.882 | 0.914 | 1.07 | 0.938 | 0.473 | 0.744 | 0.523 | 0.601 | 0.584 | 0.481 | 0.25 | 0.214 | 0.247 | 0.264 | 0.204 | 0.989 | 1.05 | 0.929 | 0.769 | 0.684
2 | EPLC-272H | 0.63 | 0.464 | 0.314 | 0.194 | 0.205 | 0.256 | 0.309 | 0.359 | 0.224 | 0.166 | 0.849 | 0.991 | 0.843 | 0.688 | 0.674 | 1.26 | 1.18 | 1.24 | 1.25 | 1.12
3 | PC-3 [JPC-3] | 0.702 | 0.642 | 0.619 | 0.564 | 0.748 | 0.717 | 0.918 | 0.804 | 0.702 | 0.847 | 0.423 | 0.504 | 0.474 | 0.416 | 0.482 | 0.966 | 0.989 | 0.975 | 0.975 | 1.03
4 | NCI-H1793 | 0.211 | 0.815 | 0.233 | 0.172 | 0.152 | 0.286 | 0.282 | 0.324 | 0.309 | 0.304 | 0.709 | 0.926 | 0.689 | 0.753 | 0.259 | 0.983 | 1.18 | 0.87 | 0.83 | 0.513
5 | EKVX | 0.939 | 0.958 | 0.797 | 0.845 | 0.667 | 0.676 | 0.75 | 0.733 | 0.71 | 0.633 | 0.204 | 0.215 | 0.192 | 0.193 | 0.184 | 1.02 | 1.06 | 0.946 | 0.68 | 0.874
6 | ChaGo-K-1 | 0.574 | 0.537 | 0.612 | 0.509 | 0.452 | 0.557 | 0.638 | 0.61 | 0.535 | 0.642 |  |  |  |  |  |  |  |  |  | 
7 | NCI-H23 | 0.22 | 0.205 | 0.187 | 0.215 | 0.201 | 0.589 | 0.549 | 0.506 | 0.491 | 0.268 | 1.08 | 1.23 | 1.02 | 0.825 | 0.267 | 0.575 | 0.642 | 0.466 | 0.449 | 0.244
8 | EMC-BAC-2 | 1.25 | 1.37 | 1.12 | 0.879 | 1.08 | 0.368 | 0.367 | 0.408 | 0.37 | 0.355 | 0.843 | 0.987 | 0.961 | 0.852 | 0.889 | 0.834 | 0.904 | 0.849 | 0.663 | 0.836
9 | LOU-NH91 | 0.321 | 0.368 | 0.285 | 0.667 | 0.307 | 0.752 | 0.711 | 0.684 | 0.727 | 0.701 | 0.785 | 0.694 | 0.761 | 0.713 | 0.619 | 0.963 | 0.868 | 0.929 | 0.899 | 0.734
10 | LU99A | 0.31 | 0.202 | 0.248 | 0.162 | 0.223 | 0.285 | 0.309 | 0.242 | 0.261 | 0.207 | 1.04 | 1.11 | 0.998 | 0.858 | 0.611 | 0.533 | 0.622 | 0.496 | 0.557 | 0.422
11 | NCI-H1395 | 0.762 | 0.536 | 0.687 | 0.349 | 0.379 | 0.606 | 0.574 | 0.631 | 0.487 | 0.338 | 1.01 | 0.634 | 0.756 | 0.833 | 0.397 | 1.19 | 0.679 | 1.11 | 0.616 | 0.431
12 | NCI-H460 | 0.0336 | 0.0269 | 0.0266 | 0.0285 | 0.0325 | 0.725 | 0.765 | 0.515 | 0.203 | 0.0935 | 1.12 | 1.37 | 1.15 | 0.288 | 0.591 | 0.611 | 0.68 | 0.728 | 0.217 | 0.183
13 | 201T | 1.05 | 1.17 | 1.06 | 0.988 | 0.83 | 0.777 |  | 0.656 | 0.532 | 0.241 | 1 | 1.09 | 1.02 | 0.951 | 1.11 | 1.08 | 1.05 | 1.12 | 0.97 | 0.936
14 | NCI-H1944 | 0.705 | 0.671 | 0.706 | 0.635 | 0.344 | 0.427 | 0.454 | 0.39 | 0.349 | 0.278 | 0.823 | 0.832 | 0.761 | 0.605 | 0.577 | 1.16 | 1.2 | 1.12 | 1.06 | 0.867
15 | NCI-H2405 | 0.717 | 0.858 | 0.705 | 0.73 | 0.439 | 0.607 | 0.594 | 0.652 | 0.623 | 0.54 | 1.06 | 1.17 | 1.01 | 0.993 | 0.85 | 0.922 | 0.875 | 1.02 | 0.842 | 0.785
16 | NCI-H1703 |  |  |  |  |  |  |  |  |  |  | 1.18 | 0.454 | 0.481 | 0.205 | 0.124 | 0.72 | 0.586 | 0.539 | 0.336 | 0.119
17 | NCI-H1755 | 0.465 | 0.534 | 0.394 | 0.562 | 0.194 | 0.74 | 0.803 | 0.715 | 0.693 | 0.587 | 1.15 | 1.14 | 1.09 | 0.743 | 0.758 | 1.07 | 1.04 | 0.978 | 0.924 | 0.972

From the supplement of paper PMC10307832
